Laboratory results published in PubChem BioAssay (NCI).
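Five concentrations, 48 hours, 96-well plates. The concentration for 50% growth inhibition is given as GI50. TGI is the concentration that stops growth completely.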

Legend:
Assay in all cases: growth of human tumour cells (NCI), 48 h
[1] = test system: NCI-H23 lung
[2] = test system: EKVX NSCLC
[3] = test system: SNB-75 CNS
[4] = test system: CAKI-1 renal
[5] = test system: SF-295 CNS
[6] = test system: KM20L2 colon
[7] = test system: RXF 393 renal
[8] = test system: OVCAR-3 ovarian
[9] = test system: NCI-H460 lung
[10] = test system: SN12C renal
[11] = test system: A498 renal
[12] = test system: ACHN renal
[13] = test system: U251 CNS
[14] = test system: TK-10 renal
[15] = test system: SK-MEL-5 melanoma
[16] = test system: K-562 leukemia
[17] = test system: OVCAR-5 ovarian
[18] = test system: M14 melanoma
[19] = test system: HCT-15 colon
[20] = test system: SF-539 CNS
[21] = test system: HCC-2998 colon
[22] = test system: HT29 colon
[23] = test system: SNB-19 CNS
[24] = test system: SNB-78 CNS
[25] = test system: UACC-257 melanoma
[26] = test system: DLD-1 colon
[27] = test system: OVCAR-8 ovarian
[28] = test system: NCI-H522 lung
[29] = test system: HL-60(TB) leukemia
[30] = test system: RPMI-8226 leukemia
[31] = test system: NCI-H226 lung
[32] = test system: HCT-116 colon
[33] = test system: DMS 273 small cell lung
[34] = test system: CCRF-CEM leukemia
[35] = test system: MOLT-4 leukemia
[36] = test system: HOP-62 NSCLC
[37] = test system: KM12 colon
[38] = test system: UO-31 renal
[39] = test system: HOP-18 NSCLC
[40] = test system: SK-MEL-28 melanoma
[41] = test system: A549 NSCLC
[42] = test system: IGROV1 ovarian
[43] = test system: SK-OV-3 ovarian
[44] = test system: UACC-62 melanoma
[45] = test system: 786-0 renal
[46] = test system: COLO 205 colon
[47] = test system: LXFL 529 NSCLC
[48] = test system: LOX IMVI melanoma
[49] = test system: MALME-3M melanoma
[50] = test system: SW-620 colon
[51] = test system: SF-268 CNS
[52] = test system: SK-MEL-2 melanoma
[53] = test system: OVCAR-4 ovarian

With `CC(CN(CP(=O)([O-])[O-])CP(=O)([O-])[O-])N(CP(=O)([O-])[O-])CP(=O)([O-])[O-].N.N.[Pt+2]` (stereo unspecified) the GI50 [1] was > 100 µM, the TGI [1] was > 100 µM and the GI50 [2] was > 100 µM. The TGI [2] was > 100 µM, the GI50 [3] was > 100 µM and the TGI [3] was > 100 µM. For the same compound, the GI50 [4] was > 100 µM, the TGI [4] was > 100 µM and the GI50 [5] was > 100 µM. For the same compound, the TGI [5] was > 100 µM, the GI50 [6] was > 100 µM and the TGI [6] was > 100 µM. For the same compound, the GI50 [7] was > 100 µM, the TGI [7] was > 100 µM and the GI50 [8] was > 100 µM. For the same compound, the TGI [8] was > 100 µM, the GI50 [9] was > 100 µM and the TGI [9] was > 100 µM. For the same compound, the GI50 [10] was > 100 µM, the TGI [10] was > 100 µM and the GI50 [11] was > 100 µM. The TGI [11] was > 100 µM, the GI50 [12] was > 100 µM and the TGI [12] was > 100 µM. For the same compound, the GI50 [13] was > 100 µM, the TGI [13] was > 100 µM and the GI50 [14] was > 100 µM. For the same compound, the TGI [14] was > 100 µM, the GI50 [15] was > 100 µM and the TGI [15] was > 100 µM. For the same compound, the GI50 [16] was > 100 µM, the TGI [16] was > 100 µM and the GI50 [17] was > 100 µM. The TGI [17] was > 100 µM, the GI50 [18] was > 100 µM and the TGI [18] was > 100 µM. For the same compound, the GI50 [19] was > 100 µM, the TGI [19] was > 100 µM and the GI50 [20] was > 100 µM. The TGI [20] was > 100 µM, the GI50 [21] was > 100 µM and the TGI [21] was > 100 µM. The GI50 [22] was > 100 µM, the TGI [22] was > 100 µM and the GI50 [23] was > 100 µM. The TGI [23] was > 100 µM, the GI50 [24] was > 100 µM and the TGI [24] was > 100 µM. For the same compound, the GI50 [25] was > 100 µM, the TGI [25] was > 100 µM and the GI50 [26] was > 100 µM. The TGI [26] was > 100 µM, the GI50 [27] was > 100 µM and the TGI [27] was > 100 µM. For the same compound, the GI50 [28] was > 100 µM, the TGI [28] was > 100 µM and the GI50 [29] was > 100 µM. The TGI [29] was > 100 µM, the GI50 [30] was > 100 µM and the TGI [30] was > 100 µM. For the same compound, the GI50 [31] was > 100 µM, the TGI [31] was > 100 µM and the GI50 [32] was > 100 µM. For the same compound, the TGI [32] was > 100 µM, the GI50 [33] was > 100 µM and the TGI [33] was > 100 µM. For the same compound, the GI50 [34] was > 100 µM, the TGI [34] was > 100 µM and the GI50 [35] was > 100 µM. For the same compound, the TGI [35] was > 100 µM, the GI50 [36] was > 100 µM and the TGI [36] was > 100 µM. The GI50 [37] was > 100 µM, the TGI [37] was > 100 µM and the GI50 [38] was > 100 µM. The TGI [38] was > 100 µM, the GI50 [39] was 26.1 µM and the TGI [39] was > 100 µM. For the same compound, the GI50 [40] was > 100 µM, the TGI [40] was > 100 µM and the GI50 [41] was > 100 µM. The TGI [41] was > 100 µM, the GI50 [42] was > 100 µM and the TGI [42] was > 100 µM. For the same compound, the GI50 [43] was > 100 µM, the TGI [43] was > 100 µM and the GI50 [44] was > 100 µM. The TGI [44] was > 100 µM, the GI50 [45] was > 100 µM and the TGI [45] was > 100 µM. For the same compound, the GI50 [46] was > 100 µM, the TGI [46] was > 100 µM and the GI50 [47] was > 100 µM. The TGI [47] was > 100 µM, the GI50 [48] was > 100 µM and the TGI [48] was > 100 µM. For the same compound, the GI50 [49] was > 100 µM, the TGI [49] was > 100 µM and the GI50 [50] was > 100 µM. For the same compound, the TGI [50] was > 100 µM, the GI50 [51] was > 100 µM and the TGI [51] was > 100 µM. For the same compound, the GI50 [52] was > 100 µM, the TGI [52] was > 100 µM and the GI50 [53] was > 100 µM. For the same compound, the TGI [53] was > 100 µM.
